According to patent publication US4657924A, “Nafazatrom as a lipoxygenase inhibitor” (priority 1983, dated 1987):

Experiments:
[1] = tested on: disorders in cardiac rhythm following coronary ligature; test: Coronary artery ligation in rats: disorders in cardiac rhythm; assay type: in vivo, rat (Wistar); details: for Duration of VF (seconds), early / Duration of VT (seconds), early / Extrasystoles %, early: 0-10 minutes; for Duration of VF (seconds), late / Duration of VT (seconds), late / Extrasystoles %, late: 2-4 hours
Source text: (§1) Ligation of the left coronary artery of the rat heart and the disorders in cardiac rhythm which thereby occur form a relatively simple model for investigating substances having antiarrhythmic actions and effects on the developing myocardial ischaemia (Clark et al., J. Pharmacol. Meth. 3, 357, 1980). The effects of nafazatrom on antiarrhythmic and antiischaemic properties in conscious rats was investigated in this model. Particular importance was placed on the severity and quantity of disorders in cardiac rhythm which occurred.
(§2) Male Wistar rats (250-350 g) were superficially anaesthetized with ether and investigated for rhythm disorders. Animals with rhythm abnormalities before the start of the experiment were excluded. In acute surgery, the animals were again anaesthetized with ether. In the lateral dorsal position, the thorax was opened somewhat to the left alongside the central line and the heart was exteriorized. Close below the left heart auricle, a silk ligature (3-0) was looped through the muscle of the left heart under the anterior coronary artery. Animals which developed rhythm disorders during this procedure were excluded. The left coronary artery was ligatured by the method described by Selye et al. (Angiology 11, 398, 1960), the heart was returned to the thorax and the wound was rapidly closed with thread. Since the thorax had not been opened for longer than about 45 seconds, artificial respiration of the animals was unnecessary. The operation mortality was between 25 and 40% within the first hours, and in particular myocardial haemorrhages, rhythm disorders with ventricular fibrillation, and massive cardiac infractions occurred. In a sham-operatedgroup, the same experimental conditions were investigated, with the exception that the coronary artery remained open. Shortly after the ligature had been made, early rhythm disorders were observed, which were accompanied in some cases (untreated) with ventricular fibrillations. In most cases, this ventricular fibrillation spontaneously turned into uniform sinus rhythm of heart contraction. The disorders in cardiac rhythm were evaluated by the plan described by Clark (see above). Ventricular tachycardia was defined as the result of more than 10 successive rhythm disorders with extrasystoles. Electrocardiographic changes included a rise in the ST segment, a drop in the Q waves and a rise in the QT interval. The total number of ectopic activity in each individual animal was determined by counting the ventricular extrasystoles, including tachycardia and fibrillations.
(§3) Three groups were investigated: group I received the diluent (1% strength aqueous Tylose suspension, that is to say methylhydroxyethyl-cellulose) twice daily perorally (0.5 ml/kg) for 10 days and by the same administration and in the same amount, after coronary ligature, for a further 20 days; group II was pretreated with the diluent for 10 days (0.5 ml/kg) and was treated with 30 or 100 mg/kg of nafazatrom (in each case suspended in 0.5 ml/kg of 1% strength Tylose suspension) twice daily perorally for 20 days, after coronary ligature (the first nafazatrom administration was effected immediately after the coronary ligature); group III received the above oral doses of nafazatrom in the course of 10 days before the ligature, and the diluent Tylose suspension for 10 days after the coronary occlusion had been effected. The sham-operated animals remained untreated. The peripheral ECG in the extremities was determined in lead II, and in particular, as a control before the start of treatment, shortly before and during coronary ligature, 10 minutes after coronary ligature had been effected, and--after renewed ether anaesthesia-- between the 2nd and 4th hour after coronary occlusion. Each time, the animals were superficially anaesthetized again with ether when the ECG was recorded. At the end of the treatment period, a last ECG was recorded shortly before the animals were sacrificed. […]

[2] = tested on: cardiac infarction following ligation of the left coronary artery; test: Coronary artery ligation in rats: cardiac infarction size and total mortality; assay type: in vivo, rat (Wistar); details: for Total mortality % / Infarction size, % of total heart: peroral; for reduction of infarction size: treatment after coronary ligature
Source text: as §1, §2, §3

guinea pig lung = test: Inhibition of methacholine-induced bronchoconstriction in perfused guinea pig lung; details: 10^-4 g/ml; 0.05 μg/ml of methacholine
Description: Nafazatrom can moreover be used for the therapy of pulmonary hypertension, pulmonary embolisms and pulmonary oedemas. […] In this organ, nafazatrom inhibits (by the method of F. P. Luduena et al., Arch. Int. Pharmacodyn. 111, 392, 1957) methacholine-induced bronchoconstriction (see Example 5).
The guinea pig lung was perfused with a physiological buffer solution (Tyrode's solution) containing 0.05 μg/ml of methacholine.

cyclooxygenase = test: Cyclooxygenase inhibition; assay type: biochemical; details: on administration of nafazatrom
5-lipoxygenase = 5-lipoxygenase inhibition; assay type: biochemical; details: selectively, versus 15- and 12-lipoxygenase
[3] = tested on: coronary arteries of dogs; details: cited from earlier work
[4] = tested on: 15-hydroxyprostaglandin dehydrogenase; details: Wong and McGiff, 1982; cited from earlier work
[5] = group II, after-treatment 30 mg/kg, 2 × daily, 15 animals
[6] = group II, after-treatment 30 mg/kg, 2 × daily, 9 animals
[7] = group II, after-treatment 100 mg/kg, 2 × daily, 18 animals
[8] = group III, pre-treatment 30 mg/kg, 10 days, 12 animals
[9] = group III, pre-treatment 30 mg/kg, 10 days, 10 animals
[10] = group III, pre-treatment 100 mg/kg, 10 days, 16 animals
[11] = group III, pre-treatment 100 mg/kg, 10 days, 11 animals

CC1=NN(CCOc2ccc3ccccc3c2)C(=O)C1 [nafazatrom, 3-methyl-1-[2-(2-naphthyloxy)-ethyl]-2-pyrazolin-5-one]
irregularities in comparison with the control animals ([1]; early (0-10 minutes) and late phase (2-4 hours)): significantly fewer irregularities | Duration of VF (seconds), early [1, 5]: 65 s | Duration of VT (seconds), early [1, 5]: 72 s | Extrasystoles %, early [1, 5]: 94% | Duration of VF (seconds), late [1, 6]: 0 s | Duration of VT (seconds), late [1, 6]: 4 s | Extrasystoles %, late [1, 6]: 6% | Duration of VF (seconds), early [1, 7]: 68 s | Duration of VT (seconds), early [1, 7]: 60 s | Extrasystoles %, early [1, 7]: 90% | Duration of VF (seconds), late [1, 7]: 0 s | Duration of VT (seconds), late [1, 7]: 0 s | Extrasystoles %, late [1, 7]: 0% | Duration of VF (seconds), early [1, 8]: 5 s | Duration of VT (seconds), early [1, 8]: 9 s | Extrasystoles %, early [1, 8]: 34% | Duration of VF (seconds), late [1, 9]: 11 s | Duration of VT (seconds), late [1, 9]: 10 s | Extrasystoles %, late [1, 9]: 25% | Duration of VF (seconds), early [1, 10]: 0 s | Duration of VT (seconds), early [1, 10]: 13 s | Extrasystoles %, early [1, 10]: 25% | Duration of VF (seconds), late [1, 11]: 6 s | Duration of VT (seconds), late [1, 11]: 10 s | Extrasystoles %, late [1, 11]: 4% | prevention of rhythm disorders ([1]; pre-treatment of 100 mg/kg): prevent almost all the rhythm disorders | total mortality ([2]; after-treated with 30 mg/kg): 22% | total mortality ([2]; after-treated with 100 mg/kg): 12% | infarctions in comparison with the control animals treated only with Tylose ([2]; both groups (before or after coronary ligature)): significantly smaller | Total mortality % ([2]; group II, after-treatment 30 mg/kg, 2 × daily, 20 days): 24% | Infarction size, % of total heart ([2]; group II, after-treatment 30 mg/kg, 2 × daily, 20 days, 15 animals): 31.5% | Total mortality % ([2]; group II, after-treatment 100 mg/kg, 2 × daily, 20 days): 22% | Infarction size, % of total heart ([2]; group II, after-treatment 100 mg/kg, 2 × daily, 20 days, 18 animals): 26.7% | Total mortality % ([2]; group III, pre-treatment 30 mg/kg, 10 days): 22% | Infarction size, % of total heart [2, 8]: 28.0% | Total mortality % ([2]; group III, pre-treatment 100 mg/kg, 10 days): 12% | Infarction size, % of total heart [2, 10]: 22.7% | reduction of infarction ([2]; pre-treatment 30 mg/kg): 36% | reduction of infarction ([2]; pre-treatment 100 mg/kg): 48% | reduction of infarction size ([2]; 30 mg/kg): 28% | reduction of infarction size ([2]; 100 mg/kg): 39% | inhibition of the rise in perfusion pressure, and hence bronchoconstriction (guinea pig lung): 50% | inhibition of cyclooxygenase (cyclooxygenase): No such inhibition of cyclooxygenase | inhibition of 5-lipoxygenase (5-lipoxygenase): selectively inhibits | antithrombotic effectiveness [3]: also effective in the coronary arteries of dogs | blocking of 15-hydroxyprostaglandin dehydrogenase [4]: blocks 15-hydroxyprostaglandin dehydrogenase
